Results from patent publication US10131652B2, “Pyrimidinyloxy benzene derivatives as herbicides” (E. I. DU PONT DE NEMOURS AND COMPANY, priority 2014, dated 2018).
Like-named read-outs stand apart in the source and are kept apart here.

Assays:
Assay in all cases: Test E pre-/postemergence plant response
Assay type in all cases: in vivo
[1] = test system: field poppy (Papaver rhoeas); details: scale 0 to 100, read-out: Plant response rating, Field Poppy; for pest or weed control at 16 g/ha: 16 g ai/ha; for pest or weed control at 31 g/ha: 31 g ai/ha; for pest or weed control at 62 g/ha: 62 g ai/ha; for pest or weed control at 125 g/ha: 125 g ai/ha
Summary of the method: (§1)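 Visual scores on a 0–100 scale (100 = complete control) were assigned against untreated controls 7–21 days after treatment in a controlled environment. Compounds, formulated with solvent plus surfactant, were applied to pre-emergence silt-loam sowings or to 1- to 4-leaf plants (2–18 cm) in potting medium.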

[2] = test system: field violet (Viola arvensis); details: scale 0 to 100, read-out: Plant response rating, Field Violet; for pest or weed control at 31 g/ha: 31 g ai/ha; for pest or weed control at 125 g/ha: 125 g ai/ha
Summary of the method: as §1

[3] = test system: spring wheat (Triticum aestivum); details: post-emergence, Postemergence, scale 0 to 100, read-out: Plant response rating, Wheat, Spring
Summary of the method: as §1

[4] = test system: galium (catchweed bedstraw, Galium aparine); details: scale 0 to 100, read-out: Plant response rating, Galium; for pest or weed control at 16 g/ha: 16 g ai/ha; for pest or weed control at 31 g/ha: 31 g ai/ha; for pest or weed control at 62 g/ha: 62 g ai/ha; for pest or weed control at 125 g/ha: 125 g ai/ha
Summary of the method: as §1

[5] = test system: speedwell (bird's-eye speedwell, Veronica persica); details: scale 0 to 100, read-out: Plant response rating, Speedwell; for pest or weed control at 16 g/ha: 16 g ai/ha; for pest or weed control at 62 g/ha: 62 g ai/ha; for pest or weed control at 125 g/ha: 125 g ai/ha
Summary of the method: as §1

[6] = test system: wild mustard (Sinapis arvensis); details: Brassica, scale 0 to 100, read-out: Plant response rating, Mustard, Wild; for pest or weed control at 16 g/ha: 16 g ai/ha; for pest or weed control at 31 g/ha: 31 g ai/ha; for pest or weed control at 62 g/ha: 62 g ai/ha; for pest or weed control at 125 g/ha: 125 g ai/ha
Summary of the method: as §1

[7] = test system: spring barley (Hordeum vulgare); details: post-emergence, Postemergence
Summary of the method: as §1

[8] = test system: wild buckwheat (Polygonum convolvulus); details: Fallopia convolvulus, scale 0 to 100, read-out: Plant response rating, Buckwheat, Wild; for pest or weed control at 16 g/ha: 16 g ai/ha; for pest or weed control at 31 g/ha: 31 g ai/ha; for pest or weed control at 62 g/ha: 62 g ai/ha; for pest or weed control at 125 g/ha: 125 g ai/ha
Summary of the method: as §1

[9] = test system: chickweed (common chickweed, Stellaria media); details: scale 0 to 100, read-out: Plant response rating, Chickweed; for pest or weed control at 16 g/ha: 16 g ai/ha; for pest or weed control at 31 g/ha: 31 g ai/ha; for pest or weed control at 62 g/ha: 62 g ai/ha; for pest or weed control at 125 g/ha: 125 g ai/ha
Summary of the method: as §1

[10] = test system: oilseed rape (Brassica napus); details: scale 0 to 100, read-out: Plant response rating, Oilseed Rape; for plant injury at 16 g/ha: 16 g ai/ha; for plant injury at 31 g/ha: 31 g ai/ha; for plant injury at 62 g/ha: 62 g ai/ha; for plant injury at 125 g/ha: 125 g ai/ha
Summary of the method: as §1

[11] = test system: chamomile (scentless chamomile, Matricaria inodora); details: Tripleurospermum inodorum, scale 0 to 100, read-out: Plant response rating, Chamomile; for pest or weed control at 16 g/ha: 16 g ai/ha; for pest or weed control at 31 g/ha: 31 g ai/ha; for pest or weed control at 62 g/ha: 62 g ai/ha; for pest or weed control at 125 g/ha: 125 g ai/ha
Summary of the method: as §1

FC(F)(F)c1cc(-c2ccccc2Oc2ncc(Cl)cn2)no1 [Compound 200, 5-chloro-2-[2-[5-(trifluoromethyl)-3-isoxazolyl]phenoxy]pyrimidine]
5%: plant injury at 16 g/ha ([3]; 16 g ai/ha) | pest or weed control at 16 g/ha ([11]; post-emergence, Postemergence)
90%: pest or weed control at 31 g/ha ([1]; pre-emergence, Preemergence) | pest or weed control at 125 g/ha ([4]; post-emergence, Postemergence) | pest or weed control at 31 g/ha ([9]; pre-emergence, Preemergence)
70%: pest or weed control at 16 g/ha ([2]; post-emergence, 16 g ai/ha, Postemergence) | pest or weed control at 16 g/ha ([4]; post-emergence, Postemergence) | pest or weed control at 16 g/ha ([5]; post-emergence, Postemergence) | pest or weed control at 31 g/ha ([8]; post-emergence, Postemergence) | pest or weed control at 16 g/ha ([9]; pre-emergence, Preemergence)
15%: pest or weed control at 16 g/ha ([4]; pre-emergence, Preemergence) | plant injury at 31 g/ha ([7]; 31 g ai/ha, scale 0 to 100, read-out: Plant response rating, Barley, Spring) | pest or weed control at 125 g/ha ([11]; post-emergence, Postemergence)
100%: pest or weed control at 62 g/ha ([1]; post-emergence, Postemergence) | pest or weed control at 125 g/ha ([1]; post-emergence, Postemergence) | pest or weed control at 125 g/ha ([2]; pre-emergence, Preemergence) | pest or weed control at 125 g/ha ([4]; pre-emergence, Preemergence) | pest or weed control at 31 g/ha ([5]; post-emergence, 31 g ai/ha, Postemergence) | pest or weed control at 62 g/ha ([5]; post-emergence, Postemergence) | pest or weed control at 125 g/ha ([5]; post-emergence, Postemergence) | pest or weed control at 16 g/ha ([5]; pre-emergence, Preemergence) | pest or weed control at 62 g/ha ([5]; pre-emergence, Preemergence) | pest or weed control at 125 g/ha ([5]; pre-emergence, Preemergence) | pest or weed control at 62 g/ha ([6]; post-emergence, Postemergence) | pest or weed control at 125 g/ha ([6]; post-emergence, Postemergence) | pest or weed control at 125 g/ha ([6]; pre-emergence, Preemergence) | pest or weed control at 125 g/ha ([8]; post-emergence, Postemergence) | pest or weed control at 62 g/ha ([8]; pre-emergence, Preemergence) | pest or weed control at 125 g/ha ([8]; pre-emergence, Preemergence) | pest or weed control at 62 g/ha ([9]; post-emergence, Postemergence) | pest or weed control at 125 g/ha ([9]; post-emergence, Postemergence) | pest or weed control at 62 g/ha ([9]; pre-emergence, Preemergence) | pest or weed control at 125 g/ha ([9]; pre-emergence, Preemergence) | plant injury at 62 g/ha ([10]; post-emergence, Postemergence) | plant injury at 125 g/ha ([10]; post-emergence, Postemergence) | plant injury at 31 g/ha ([10]; pre-emergence, Preemergence) | plant injury at 62 g/ha ([10]; pre-emergence, Preemergence) | plant injury at 125 g/ha ([10]; pre-emergence, Preemergence)
10%: plant injury at 31 g/ha ([3]; 31 g ai/ha) | plant injury at 16 g/ha ([7]; 16 g ai/ha, scale 0 to 100, read-out: Plant response rating, Barley, Spring) | pest or weed control at 31 g/ha ([11]; post-emergence, Postemergence) | pest or weed control at 62 g/ha ([11]; post-emergence, Postemergence)
35%: plant injury at 125 g/ha ([3]; 125 g ai/ha) | plant injury at 125 g/ha ([7]; 125 g ai/ha, scale 0 to 100 (0 no effect, 100 complete control), read-out: Plant response rating, Barley, Spring)
55%: pest or weed control at 62 g/ha ([4]; pre-emergence, Preemergence)
60%: plant injury at 16 g/ha ([10]; pre-emergence, Preemergence) | pest or weed control at 62 g/ha ([11]; pre-emergence, Preemergence)
85%: pest or weed control at 16 g/ha ([6]; pre-emergence, Preemergence) | pest or weed control at 62 g/ha ([6]; pre-emergence, Preemergence) | plant injury at 31 g/ha ([10]; post-emergence, Postemergence)
65%: pest or weed control at 16 g/ha ([8]; post-emergence, Postemergence) | pest or weed control at 16 g/ha ([8]; pre-emergence, Preemergence) | pest or weed control at 16 g/ha ([9]; post-emergence, Postemergence)
75%: pest or weed control at 16 g/ha ([1]; post-emergence, Postemergence) | pest or weed control at 62 g/ha ([2]; post-emergence, 62 g ai/ha, Postemergence) | pest or weed control at 31 g/ha ([4]; post-emergence, Postemergence) | pest or weed control at 62 g/ha ([4]; post-emergence, Postemergence) | pest or weed control at 16 g/ha ([6]; post-emergence, Postemergence) | pest or weed control at 31 g/ha ([8]; pre-emergence, Preemergence) | pest or weed control at 31 g/ha ([9]; post-emergence, Postemergence) | plant injury at 16 g/ha ([10]; post-emergence, Postemergence) | pest or weed control at 125 g/ha ([11]; pre-emergence, Preemergence)
25%: pest or weed control at 31 g/ha ([4]; pre-emergence, Preemergence) | plant injury at 62 g/ha ([7]; 62 g ai/ha, scale 0 to 100, read-out: Plant response rating, Barley, Spring) | pest or weed control at 16 g/ha ([11]; pre-emergence, Preemergence) | pest or weed control at 31 g/ha ([11]; pre-emergence, Preemergence)
95%: pest or weed control at 62 g/ha ([1]; pre-emergence, Preemergence) | pest or weed control at 125 g/ha ([1]; pre-emergence, Preemergence) | pest or weed control at 125 g/ha ([2]; post-emergence, Postemergence) | pest or weed control at 31 g/ha ([6]; post-emergence, Postemergence) | pest or weed control at 31 g/ha ([6]; pre-emergence, Preemergence) | pest or weed control at 62 g/ha ([8]; post-emergence, Postemergence)
50%: pest or weed control at 31 g/ha ([2]; pre-emergence, Preemergence)
20%: plant injury at 62 g/ha ([3]; 62 g ai/ha)
80%: pest or weed control at 31 g/ha ([1]; post-emergence, Postemergence) | pest or weed control at 16 g/ha ([1]; pre-emergence, Preemergence) | pest or weed control at 31 g/ha ([2]; post-emergence, Postemergence)
